Literature values, collected in patent publication US6410548B1, “Spiropiperidine derivatives as melanocortin receptor agonists” (Merck & Co., Inc., priority 1998, dated 2002).

Assays:
rodents = settings: injected ICV; feeding models NPY, ob/ob, agouti, fasted
normal male volunteers = settings: intramuscular, 0.005-0.03 mg/kg, three normal male volunteers
[1] = test system: non-organic impotent patients; settings: intramuscular, 0.025 mg/kg and 0.1 mg/kg, 10 non-organic impotent patients

SHU-9119
effect on food intake (rodents): reverses this effect and can induce hyperphagia

melanotan-II [MT-II]
period of intermittent non-painful penile erections after dosing (normal male volunteers): 1 to 5 h
effect on food intake (rodents): reduces food intake
onset of transient erections [1]: 50 to 180 min
responders (transient erections) [1]: 8
